Test results: patent US11415579B2, “Assay for measuring a rate of reaction between a target and a ligand candidate” (Imperial College Innovations Ltd., priority 2016, dated 2022)
Where “and” joins values, the source holds several entries; their conditions need not be identical. Equal values may be shown once.

Key:
[1] = target: T1, Cdk2[C177A, F80C, K278C] (Homo sapiens, UniProt P24941, C177A/F80C/K278C); assay: Kinetic thiol consumption assay with mutant Cdk2 as model thiol; type: binding; set-up: unit not given here; settings: 500 μM ligand, 5 μM thiol, phosphate buffer pH 8
T1 construct: poly-histidine; made in house; host or cells: E. coli
Procedure, shortened: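 First-order rate constants were derived by exponential-decay fitting of DMSO/thiol-normalized fluorescence (380/470 nm) over time at room temperature. Thiol was 5 μM E. coli-expressed His-tagged Cdk2 mutant C177A/F80C/K278C in degassed pH 8 phosphate buffer containing 2% v/v TCEP beads.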

[2] = target: T2, Cdk2(S276C) (C177A) (Homo sapiens, UniProt P24941, C177A/S276C); assay: Kinetic thiol consumption assay with Cdk2 mutant S276C; type: binding; set-up: key to Rate enhancement, Cdk2 S276C: rate constant with Cdk2 ÷ rate constant with model thiol (fold); settings: additional mutation C177A; for Rate constant with Cdk2 S276C: Protein: Cdk2, cysteine position S276C, in h^-1
T2 construct: poly-histidine; made in house; host or cells: E. coli
Procedure, shortened: (§1)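 Read-out is fluorescence at 380/470 nm, taken after 1 h at room temperature and normalized to a DMSO/thiol-only control over time. Thiol (5 μM Cdk2 mutant or model thiol) was in degassed pH 8 phosphate buffer with 2% v/v TCEP beads. Acrylamide rate constants for Cdk2 were divided by those with model thiol.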

[3] = Kinetic thiol consumption assay with model thiol glutathione; type: physicochemical; set-up: Rate constant with glutathione (k(GSH)): unit not given here; settings: for Rate constant with glutathione (k(GSH)): 500 μM ligand, 5 μM thiol, phosphate buffer pH 8; for Rate constant with Glutathione: Protein: Glutathione, cysteine position NA, in h-1
Procedure, shortened: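 Rate constants for acrylamide reaction with 5 μM glutathione come from first-order exponential fits of normalized fluorescence decay (ex 380, em 470 nm). Reactions run in degassed phosphate buffer at pH 8 containing TCEP beads, room temperature.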

[4] = target: T3, Cdk2(R122C) (C177A) (Homo sapiens, UniProt P24941, C177A/R122C); assay: Kinetic thiol consumption assay with Cdk2 mutant R122C; type: binding; set-up: key to Rate enhancement, Cdk2 R122C: rate constant with Cdk2 ÷ rate constant with model thiol (fold); settings: additional mutation C177A; for Rate constant with Cdk2 R122C: Protein: Cdk2, cysteine position R122C, in h-1
T3 construct: poly-histidine; made in house; host or cells: E. coli
Procedure, shortened: as §1

[5] = target: T4, Cdk2(F80C, C177A) (Homo sapiens, UniProt P24941, C177A/F80C); assay: Intact protein mass spectrometry of labelling; type: binding; settings: after 2 hours of incubation
T4 construct: poly-histidine; made in house; host or cells: E. coli
Source text: Mass spectrometry and X-ray crystallography were used to validate the binding of a hit ligand identified by the present method.
From the screen of Cdk2(F80C, C177A), we identified EL1071 as a hit molecule (rate enhancement relative to GSH=60.5).

[6] = target: T4, Cdk2(F80C, C177A); assay: Kinase assay; type: biochemical; settings: Cdk2(F80C, C177A) labelled with ligand
Source text: Again, 1-Cdk2 refers to Cdk2(F80C, C177A) labelled with EL1071 (FIG. 10(c)). Finally, the EL1071-Cdk2(F80C, C177A) complex was crystallized and the structure determined by X-ray crystallography (FIG. 11). This confirms that the ligand binds to the cysteine residue at F80C and blocks the protein's active site leading to the observed inhibition.

[7] = target: T5, Cdk2(S181C) (C177A) (Homo sapiens, UniProt P24941, C177A/S181C); assay: Kinetic thiol consumption assay with Cdk2 mutant S181C; type: binding; set-up: key to Rate enhancement, Cdk2 S181C: rate constant with Cdk2 ÷ rate constant with model thiol (fold); settings: additional mutation C177A; for Rate constant with Cdk2 S181C: Protein: Cdk2, cysteine position S181C, in h^-1
T5 construct: poly-histidine; made in house; host or cells: E. coli
Procedure, shortened: as §1

[8] = target: T6, Cdk2(N272C) (C177A) (Homo sapiens, UniProt P24941, C177A/N272C); assay: Kinetic thiol consumption assay with Cdk2 mutant N272C; type: binding; set-up: key to Rate enhancement, Cdk2 N272: rate constant with Cdk2 ÷ rate constant with model thiol (fold); settings: for Rate enhancement, Cdk2 N272: Cdk2 N272, additional mutation C177A; for Rate constant with Cdk2 N272C: Protein: Cdk2, cysteine position N272C, additional mutation C177A, in h^-1
T6 construct: poly-histidine; made in house; host or cells: E. coli
Procedure, shortened: as §1

[9] = target: T7, Cdk2(H71C) (C177A) (Homo sapiens, UniProt P24941, C177A/H71C); assay: Kinetic thiol consumption assay with Cdk2 mutant H71C; type: binding; set-up: key to Rate enhancement, Cdk2 H71C: rate constant with Cdk2 ÷ rate constant with model thiol (fold); settings: additional mutation C177A; for Rate constant with Cdk2 H71C: Protein: Cdk2, cysteine position H71C, in h^-1
T7 construct: poly-histidine; made in house; host or cells: E. coli
Procedure, shortened: as §1

[10] = target: T8, Cdk2(C177A, F80C) (Homo sapiens, UniProt P24941, C177A/F80C); assay: Kinetic thiol consumption assay with Cdk2 mutant F80C, incl. kobs versus concentration (Kd, k2); type: binding; set-up: key to Rate enhancement, Cdk2 F80C: Cdk2 rate constant divided by model-thiol rate constant; settings: for Rate enhancement, Cdk2 F80C / Rate constant with Cdk2 F80C: additional mutation C177A; for Rate constant with Cdk2 F80C: Protein: Cdk2, cysteine position F80C, in h^-1
T8 construct: poly-histidine; made in house; host or cells: E. coli
Procedure, shortened: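 His-tagged Cdk2(C177A/F80C) from E. coli or model thiol, 5 μM in degassed phosphate buffer pH 8 with TCEP beads, reacted with acrylamide ligands; fluorescence (ex/em 380/470 nm) normalized to DMSO control and fitted to first-order decay for kobs. Kd and k2 obtained from hyperbolic fit of kobs versus ligand concentration.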

[11] = target: T9, human cyclin-dependent kinase 2 (Cdk2) (Homo sapiens, UniProt P24941); assay: Kinetic thiol consumption assay with wild type Cdk2 (C177); type: binding; set-up: key to Rate enhancement, Cdk2 WT: k(Cdk2) divided by k(model thiol); Rate constant with Cdk2 (k(Cdk2)): unit not given here; settings: for Rate constant with Cdk2 (k(Cdk2)): 500 μM ligand, 5 μM thiol, phosphate buffer pH 8; for Rate enhancement, Cdk2 WT: no additional mutations; for Rate constant with Cdk2 WT: Protein: Cdk2, cysteine position WT, in h^-1; for k(Cdk2)/k(Cdk2_mut) rate enhancement: model thiol Cdk2[C177A, F80C, K278C]; for k(Cdk2)/k(GSH) rate enhancement: model thiol glutathione
T9 construct: poly-histidine; made in house; host or cells: E. coli
Procedure, shortened: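 His-tagged human Cdk2 from E. coli (sole surface cysteine C177) or a model thiol, each 5 μM in degassed phosphate buffer pH 8 with immobilized TCEP, reacted with acrylamides at room temperature. Fluorescence (ex 380/em 470) normalized to DMSO/thiol control over time; first-order rate constants, Cdk2 rate divided by model-thiol rate.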

[12] = target: T10, Cdk2(T182C) (C177A) (Homo sapiens, UniProt P24941, C177A/T182C); assay: Kinetic thiol consumption assay with Cdk2 mutant T182C; type: binding; set-up: key to Rate enhancement, Cdk2 T182C: rate constant with Cdk2 ÷ rate constant with model thiol (fold); settings: additional mutation C177A; for Rate constant with Cdk2 T182C: Protein: Cdk2, cysteine position T182C, in h^-1
T10 construct: poly-histidine; made in house; host or cells: E. coli
Procedure, shortened: as §1

| SMILES | Rate constant with Cdk2[C177A, F80C, K278C] (k(Cdk2_mut)) [1] | Rate enhancement, Cdk2 S276C [2] | Rate constant with Cdk2 S276C [2] | Rate constant with glutathione (k(GSH)) [3] | Rate constant with Glutathione [3] | Rate enhancement, Cdk2 R122C [4] | Rate constant with Cdk2 R122C [4] | Rate enhancement, Cdk2 S181C [7] | Rate constant with Cdk2 S181C [7] | Rate enhancement, Cdk2 N272 [8] | Rate constant with Cdk2 N272C [8] | Rate enhancement, Cdk2 H71C [9] | Rate constant with Cdk2 H71C [9] | Rate enhancement, Cdk2 F80C [10] | Rate constant with Cdk2 F80C [10] | Rate constant with Cdk2 (k(Cdk2)) [11] | Rate enhancement, Cdk2 WT [11] | Rate constant with Cdk2 WT [11] | k(Cdk2)/k(Cdk2_mut) rate enhancement [11] | k(Cdk2)/k(GSH) rate enhancement [11] | other results |
| --- | --- | --- | --- | --- | --- | --- | --- | --- | --- | --- | --- | --- | --- | --- | --- | --- | --- | --- | --- | --- | --- |
| C=CC(=O)N1CCCc2cc(C(=O)OC)ccc21 [EL-1071] | 0.323 | 1.09 | 0.05538 | 0.051 and 0.05049 | 0.05081 | 0.2848 | 0.01447 | 0.5036 | 0.02559 | 0.6083 | 0.03091 | 7.215 | 0.3666 | 60.48 | 3.073 | 0.433 | 8.522 | 0.433 | 1.341 | 8.5 and 8.576 | modification of Cdk2(F80C, C177A) by intact protein mass spectrometry [5]: completely monomodified; inhibition of kinase activity [6]: completely inhibited; hit classification against Cdk2(F80C, C177A) [10]: hit molecule; rate enhancement relative to GSH ([10]; Cdk2(F80C, C177A) versus GSH): 60.5; hit classification, Example 1 ([11]; hits defined as kCdk2/kGSH>5.8 (3 standard deviations over the mean)): hit fragment; Rate enhancement, Cdk2 T182C [12]: 7.764; Rate constant with Cdk2 T182C [12]: 0.3945 |
| C=CC(=O)N1CCN(Cc2ccc(Cl)cc2)CC1 [EL-1183] | 0.00864 | 0.8088 | 0.005301 | 0.00676 | 0.006554 | 0.5841 | 0.003828 | 0.8531 | 0.005591 | 0.4193 | 0.002748 | 1.823 | 0.01195 | 2.859 | 0.01874 | 0.00376 | 0.574 | 0.003762 | 0.4353 | 0.5564 | Rate enhancement, Cdk2 T182C [12]: 2.26; Rate constant with Cdk2 T182C [12]: 0.01481 |
| C=CC(=O)N1CCCC(C(=O)OCC)C1 (stereo not drawn) [EL-1187] | 0.00336 | 0.4007 | 0.005321 | 0.00634 | 0.01328 | 0.1436 | 0.001907 | 0.2887 | 0.003834 | 0.5301 | 0.00704 | 0.4465 | 0.005929 | 0.4424 | 0.005875 | 0.00596 | 0.6935 | 0.00921 | 1.774 | 0.9394 | Rate enhancement, Cdk2 T182C [12]: 4.397; Rate constant with Cdk2 T182C [12]: 0.05839 |
| C=CC(=O)Nc1cccc(Nc2ncnc3cc(OC)c(OC)cc23)c1 [GC248] | 0.0156 | 0.1863 | 0.002781 | 0.01495 | 0.01493 | 0.8326 | 0.01243 | 1.037 | 0.01548 | 1.058 | 0.01579 | 0.6345 | 0.009473 | 0.1205 | 0.001799 | 0.01014 | 0.9116 | 0.01361 | 0.65 | 0.6783 | Rate enhancement, Cdk2 T182C [12]: 34.92; Rate constant with Cdk2 T182C [12]: 0.5214 |
